We go through 15 compounds from patent US9283236B2 (HUMAN MATRIX SCIENCES, LLC, priority 2008, dated 2016).

Test [1] has as its system human fetal cardiac fibroblasts. Kind of test: One-step RT-PCR of elastin mRNA in cardiac fibroblast cultures. The class given is cell-based. As to conditions: for effect on aldosterone-induced increase in elastin mRNA levels: agent added 1 hour (CT04 2 hours) before aldosterone.
Test [2] shares this test system. Kind of test: Quantitative assay of [3H]valine-labeled insoluble elastin. The class given is cell-based. Conditions: for effect on aldosterone-induced increase in insoluble elastin production: agent added 1 hour before aldosterone (50 nM or 1 to 50 nmol/L).
The test system is the same in test [3]. Put plainly: One-step RT-PCR of collagen type I mRNA in cardiac fibroblast cultures. Conditions: 1 hour pretreatment before 1 to 50 nmol/L aldosterone; spironolactone 2 μmol/L, RU 486 1 μmol/L. The class given is cell-based.
For test [4] the test system is unchanged. Put plainly: Immunostaining of collagen type I fibers in confluent cultures. The class given is cell-based. As to conditions: pretreatment before 1 to 50 nmol/L aldosterone; RU 486 1 μmol/L; FIG. 1.
For test [5] the test system is unchanged. Put plainly: Quantitative assay of [3H]valine-labeled immunoprecipitable tropoelastin. The class given is cell-based. As to conditions: spironolactone with 1 to 50 nmol/L aldosterone, 72 hours. As for the experimental part:
Fetal human cardiac fibroblasts were grown to confluence in 35-mm culture dishes (100,000 cells/dish) in quadruplicate. […] Cultures were incubated for 72 hours, and the soluble and insoluble elastin were assessed separately in each dish. The cells were extensively washed with phosphate-buffered saline, and the soluble proteins present in the intracellular compartments were extracted overnight at 4° C. with 0.1 mol/L acetic acid in the presence of proteinase inhibitors. After centrifugation, the supernatants were precleaned by 30-minute incubation with 50 μl of 4% protein A-beaded agarose, and then 500 μl of the supernatant was incubated with 5 μg of polyclonal antibody to tropoelastin for 2 hours and subsequently with 50 μl of 4% protein A-beaded agarose for 3 hours at 4° C. The protein A-containing beads were sedimented by centrifugation, washed with immunoprecipitation buffer, mixed with scintillation fluid, and counted. […] The resulting pellets containing the insoluble elastin were then solubilized by boiling in 200 μl of 5.7 N HCl for 1 hour, and the aliquots were mixed in scintillation fluid and counted. […] Final results reflecting amounts of metabolically labeled insoluble elastin in individual cultures were normalized per their DNA content and expressed as counts per minute per 1 μg of DNA.

Test [6] deals with adult human cardiac fibroblasts. Kind of test: One-step RT-PCR of elastin mRNA in adult cardiac fibroblasts. The class given is cell-based. Conditions: 1 hour pretreatment before aldosterone.
Test [7] shares this test system. Put plainly: Anti-elastin immunostaining in adult cardiac fibroblasts. In kind it is cell-based. As to conditions: spironolactone pretreatment. As for the experimental part:
Control cell cultures received an equal amount of the solvent vehicle. […] ScienCell (San Diego, Calif.). At the end of the 72-hour incubation period with the indicated treatment, confluent cultures were either fixed in ice-cold 100% methanol at -20° C. […] The cultures were then incubated for 1 hour with 10 μg/ml polyclonal antibody to tropoelastin or with 10 μg/ml polyclonal antibody to collagen type I. All cultures were then incubated for an additional hour with fluorescein-conjugated goat anti-rabbit or with fluorescein-conjugated rabbit anti-goat secondary antibodies to detect elastin and collagen type I staining, respectively. Nuclei were counterstained with propidium iodide. Secondary antibody alone was used as a control. All of the cultures were then mounted in Elvanol and examined with a Nikon Eclipse […] microscope attached to a cooled charge-coupled device camera (Retiga EX; QImaging, Surrey, BC, Canada) and a computer-generated video analysis system (Image-Pro Plus software; Media Cybernetics, Silver Spring, Md.).

The subject of a further test is IGF-IR. Kind of test: IGF-IR immunoprecipitation and anti-phosphotyrosine blot. In kind it is cell-based, human. The method, then:
Cells were lysed using an radioimmunoprecipitation assay buffer [50 mmol/L Tris-HCl, pH 7.4, 150 mmol/L NaCl, 1 mmol/L ethylenediamine tetraacetic acid, 10 mmol/L NaF, 1% Triton X-100, 0.1% sodium dodecyl sulfate, 1% sodium deoxycholate containing a cocktail of antiproteases (20 μg/ml leupeptin, 10 μg/ml aprotinin, 0.1 mmol/L phenylmethylsulfonyl fluoride, and 1 mmol/L dithiothreitol) and antiphosphates ([…] orthovanadate and 2 μg/ml pepstatin)], and 300 μg of protein extract was incubated with an antibody against IGF-IRβ for 1 hour at 4° C., followed by the addition of 4% protein A-beaded agarose left overnight, as previously described. The resulting protein-antibody conjugate was centrifuged at 4° C. and washed four times with phosphate-buffered saline. The final pellet was resuspended in sample buffer (0.5 mol/L Tris-HCl, pH 6.8, 10% sodium dodecyl sulfate, 10% glycerol, 4% 2-B-mercaptoethanol, and 0.05% bromphenol blue), and the mixture was boiled for 5 minutes. Proteins were resolved by 12% sodium dodecyl sulfate-polyacrylamide gel electrophoresis, transferred to nitrocellulose membranes, and then immunoblotted with anti-p-Tyr or anti-IGF-IR antibodies. The degree of expression or phosphorylation of immunodetected signaling molecules was measured by densitometry.
At the end of each experiment the cells were lysed as specified above, and 300 μg of protein extract were then precleared for 1 hour with normal rabbit agarose conjugated-IgG at 4° C. and incubated with rabbit polyclonal antibodies against IGF-IR-β, c-Src, or with Gα13 for 1 hour at 4° C., followed by the addition of 4% protein A-beaded agarose and left overnight. The resulting protein-antibody conjugate was centrifuged at 4° C. and washed four times with PBS. The final pellet was resuspended in sample buffer, and the proteins were resolved. Following immunoprecipitation of IGF-IR-β, the membrane was immunoblotted using monoclonal anti-p-Tyr antibody, stripped, and reprobed using anti-IGF-IR-β. Following immunoprecipitation of c-Src, the membranes were immunoblotted using polyclonal goat antibodies against anti-Gα13, while those immunoprecipitated with anti-Gα13 were developed with monoclonal anti-c-Src antibody. Blots were stripped and re-probed for equal loading.
The degree of expression or phosphorylation of immunodetected signaling molecules was measured by densitometry.

The next test deals with Gα13 and c-Src. Kind of test: Co-immunoprecipitation of Gα13 and c-Src. In kind it is cell-based, human. Conditions: vs untreated controls.
Setting [8] is: agent added before aldosterone, readout not specified, partly data not shown.

Entries after “also recorded” stand apart in the source; their conditions may differ. Like-named read-outs stand apart in the source and are kept apart here.

On to `CC(C)(C)c1cc(C=C(C#N)C#N)cc(Br)c1O` [AG 1024], for which the “effect on aldosterone-induced increase in elastin mRNA levels” value in test [1] (24 hours) was “eliminated the stimulatory effect of aldosterone on elastin mRNA expression; also recorded: abolished aldosterone- and IGF-I-induced increases in elastin mRNA transcript levels”. In test [1] (pretreatment or siRNA transfection before 100 ng/ml IGF-I), the “effect on IGF-I-induced increase in elastin mRNA levels” value is “could be prevented; also recorded: abolished aldosterone- and IGF-I-induced increases in elastin mRNA transcript levels”. For the same compound, the “effect on aldosterone-induced increase in insoluble elastin production” value in test [2] (72 hours) is “eliminated the stimulatory effect of aldosterone on elastin mRNA expression and insoluble elastin production; also recorded: returned insoluble elastin production to control values”. In addition, the “effect on IGF-I-induced increase in insoluble elastin production” value in test [2] (pretreatment or siRNA transfection before 100 ng/ml IGF-I, 72 hours) is reported as “could be prevented; also recorded: returned insoluble elastin production to control values”.
`Cc1cc2ncc(-c3ccccc3)nc2cc1C` [AG 1295]: the “effect on aldosterone-induced increase in elastin production (elastogenic response)” value in test [2] (setting [8]) is recorded as “did not affect the aldosterone-induced increase in elastin production”.
For the compound `COc1cc2ncnc(Nc3cccc(Cl)c3)c2cc1OC` [AG 1478], the “effect on aldosterone-induced increase in elastin production (elastogenic response)” value in [2] (setting [8]) was “did not affect the aldosterone-induced increase in elastin production”.
In the case of `COc1cccc(-c2cc(=O)c3ccccc3o2)c1N` [PD 98059], the “insoluble elastin production, inhibitor alone” value in test [2] (10 μM, 72 hours, 10% FBS, vs untreated control) was “significantly increased insoluble elastin production”. Also, in [2] (72 hours), the “effect on aldosterone-induced increase in insoluble elastin production” value was “did not eliminate the elastogenic effect of aldosterone but instead led to a further increase in the production of elastin; also recorded: further increased insoluble elastin production”.
As to `Cc1cc(Cn2cnc3c2C[C@@H](C(=O)O)N(C(=O)C(c2ccccc2)c2ccccc2)C3)ccc1N(C)C` [PD 123319], the “effect on aldosterone-induced increase in elastin production (elastogenic response)” value in test [2] (setting [8]) is listed as “did not abrogate their elastogenic response to aldosterone”.
In the case of `CC#C[C@]1(O)CC[C@H]2[C@@H]3CCC4=CC(=O)CCC4=C3[C@@H](c3ccc(N(C)C)cc3)C[C@@]21C` [RU 486, mifepristone], in [3], the “effect on aldosterone-induced increase in collagen type I mRNA levels” value is on record as “had no effect on the aldosterone-induced increase in collagen type I mRNA transcript levels”. For the same compound, the “effect on aldosterone-induced collagen production” value in test [4] is on record as “but not with the glucocorticoid receptor (GR) antagonist RU 486 (1 μmol/L), abrogated aldosterone-induced collagen production”. Besides, the “effect on aldosterone-induced increase in elastin mRNA levels” value in test [1] (24 hours) was “had no effect on the aldosterone-induced increase in elastin mRNA levels; also recorded: neither spironolactone nor RU 486 eliminated this increase”.
For the compound `NC(=O)c1ccc(-c2nc(-c3ccc4c(c3)OCO4)c(-c3ccccn3)[nH]2)cc1` [SB 431542], the “effect on aldosterone-induced increase in elastin production (elastogenic response)” value in [2] (setting [8]) is on record as “did not affect the aldosterone-induced increase in elastin production”.
In the case of `C[C@@H](N)[C@H]1CC[C@H](C(=O)Nc2ccncc2)CC1` [Y-27632], the “effect on aldosterone-induced increase in elastin mRNA levels” value in test [1] (24 hours) is “did not eliminate the aldosterone-induced increase in elastin mRNA expression”. In addition, the “effect on aldosterone-induced increase in elastin production (elastogenic response)” value in test [2] (setting [8]) is “did not eliminate the aldosterone-induced increase in elastin mRNA expression and elastin production”.
In the case of `CCCCc1nc(Cl)c(CO)n1Cc1ccc(-c2ccccc2-c2nn[nH]n2)cc1` [losartan, Losartan], the “effect on aldosterone-induced increase in elastin production (elastogenic response)” value in [2] (setting [8]) is “did not abrogate their elastogenic response to aldosterone”.
Turning to `CC(=O)S[C@@H]1CC2=CC(=O)CC[C@]2(C)[C@H]2CC[C@@]3(C)[C@@H](CC[C@@]34CCC(=O)O4)[C@H]12` [spironolactone], in [3], the “effect on aldosterone-induced increase in collagen type I mRNA levels” value is reported as “returned the aldosterone-induced increase in collagen type I mRNA levels to untreated values”. Besides, the “effect on aldosterone-induced collagen production” value in [4] is “abrogated aldosterone-induced collagen production; also recorded: eliminated any aldosterone-induced increase in collagen type I production”. For the same compound, the “effect on aldosterone-induced increase in elastin mRNA levels” value in test [1] (24 hours) is listed as “failed to prevent an aldosterone-induced increase in elastin mRNA expression; also recorded: neither spironolactone nor RU 486 eliminated this increase”. Also, in test [5], the “effect on aldosterone-induced increase in tropoelastin production” value was “failed to prevent; also recorded: did not abrogate the increase in tropoelastin production”. Also, the “effect on aldosterone-induced increase in insoluble elastin production” value in test [2] (72 hours) was “failed to prevent; also recorded: did not eliminate the increase in insoluble elastin production”. Further, in [6], the “effect on aldosterone-induced increase in elastin mRNA, adult cardiac fibroblasts” value is given as “had no effect on the aldosterone-induced increase in elastin mRNA transcript levels”. Also, the “effect on aldosterone-induced increase in elastic fiber deposition, adult cardiac fibroblasts” value in [7] is listed as “did not affect aldosterone-induced increase in elastic fiber deposition”.
As for `CN[C@@H]1C[C@H]2O[C@@](C)([C@@H]1OC)n1c3ccccc3c3c4c(c5c6ccccc6n2c5c31)C(=O)NC4` [staurosporine], the “effect on aldosterone-induced increase in elastin production (elastogenic response)” value in [2] is listed as “did not abrogate the aldosterone-induced increase in elastin production”.
With “CT04: cell-permeable Rho inhibitor (exoenzyme C3 transferase) from Cytoskeleton, Inc.”, in test [1] (24 hours), the “effect on aldosterone-induced increase in elastin mRNA levels” value is “did not eliminate the aldosterone-induced increase in elastin mRNA expression”. In test [2] (setting [8]), the “effect on aldosterone-induced increase in elastin production (elastogenic response)” value was “did not eliminate the aldosterone-induced increase in elastin mRNA expression and elastin production”.
For “IGF-I: recombinant human insulin-like growth factor-I”, the “elastin mRNA levels” value in test [1] (100 ng/ml IGF-I, 24 hours) is on record as “approximately threefold increase”. The “net production of insoluble elastin” value in test [2] (100 ng/ml IGF-I, 72 hours) is listed as “approximately threefold increase”. In addition, the “tyrosine phosphorylation of the IGF-IR” value with IGF-IR (10-minute exposure, 10% fetal bovine serum, aldosterone or BSA-conjugate 50 nM, IGF-I 100 ng/ml) is “produced a very similar effect”. In addition, the “tyrosine phosphorylation of the IGF-IR, dependence on serum” value with IGF-IR (presence vs absence of fetal bovine serum) is “induced phosphorylation of its IGF-IR, both in the presence and in the absence of fetal bovine serum”.
In the case of aluminum fluoride, the “interaction between c-Src and Gα13” value in the test with Gα13 and c-Src is “increased the interaction between c-Src and Gα13”.
On to pertussis toxin, for which the “effect on aldosterone-induced increase in insoluble elastin production” value in [2] (72 hours) is listed as “did not inhibit the elastogenic effect of aldosterone”. The “effect on aldosterone-induced increase in elastin production (elastogenic response)” value in test [2] (setting [8]) is “did not abrogate the aldosterone-induced increase in elastin production; also recorded: does not attenuate the pro-elastogenic effect of aldosterone”.
